# Measurements: patent US6653344B2, “Pharmaceutical preparations containing a dibenzocyclooctane lignan derivative for treatment of neurodegenerative disease” (Elcom Bio Technology Co., Ltd., priority 2000, dated 2003)
# Test system: nitric oxide (NO) content in glutamate-damaged primary cultured rat cortical cells
# Assay: Measurement of nitrite (Griess reagent), NO content
# Assay type: cell-based
# Details: compound 1 M (1 μM) for 1 hr before 100 M glutamate, 24 hr
# Experimental: The content of nitrite isolated into culture broth from first cultured cortical cells was assayed by using Griess reagent by Dawson's method (Dawson V L, Brahbhatt H P, Mong J A and Dawson T M (1994) Expression of inducible nitric oxide synthase causes delayed neurotoxicity in primary neuronal-glial cortical cultures. Neuropharmacology 33: 1425-1430).
# In case glutamate is treated to first cultured cortical cells of mice, formation of NO is increased. […] When schizandrin is treated at the 1 μM concentration, it decreased NO content increased by glutamate. […] When deoxyschizandrin, gomisin N and wuweizisu C are treated at 1 uM concentration to first cultured cortical cells toxicity-induced by glutamate, those maintained about 50% of normal state activity of GSH-px and glutathione decreased by glutamate and have protective activity on the activity of antioxidant enzymes.
# Rat cortical cultures were treated with compounds at the concentration of 1 M for 1 hr before exposure to 100 M glutamate and then maintained for 24 hr. Values given represent the mean SD (n=3).
smiles,measurement,value
COc1cc2c(c(OC)c1OC)-c1c(cc(OC)c(OC)c1OC)C[C@](C)(O)[C@@H](C)C2 [schizandrin],Protection (NO content),40.2%
